How the values were obtained:
[1] = target: T1, Drosophila TyrR (Drosophila melanogaster, UniProt P22270, C261Y); assay: Competitive tyramine receptor binding assay with 3H-tyramine
T1 construct: The open reading frame contained in this PCR product encodes a protein of 601 amino acids; expressed in transfected cells
T1 sequence (P22270 27-601 C261Y): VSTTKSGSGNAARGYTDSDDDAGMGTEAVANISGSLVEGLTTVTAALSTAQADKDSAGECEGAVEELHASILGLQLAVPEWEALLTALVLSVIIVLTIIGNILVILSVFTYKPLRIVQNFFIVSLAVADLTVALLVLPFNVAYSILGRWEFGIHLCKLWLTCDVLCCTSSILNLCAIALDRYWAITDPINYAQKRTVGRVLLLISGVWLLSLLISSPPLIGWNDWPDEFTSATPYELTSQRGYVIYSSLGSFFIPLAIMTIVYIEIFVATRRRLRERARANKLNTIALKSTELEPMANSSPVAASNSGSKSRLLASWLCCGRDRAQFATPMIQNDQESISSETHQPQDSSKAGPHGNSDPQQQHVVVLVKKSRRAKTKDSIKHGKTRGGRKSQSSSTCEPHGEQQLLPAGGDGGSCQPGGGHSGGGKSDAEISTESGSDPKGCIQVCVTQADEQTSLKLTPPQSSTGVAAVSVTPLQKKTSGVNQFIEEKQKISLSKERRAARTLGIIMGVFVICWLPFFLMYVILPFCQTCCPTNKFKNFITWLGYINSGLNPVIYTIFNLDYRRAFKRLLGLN

[2] = target: T2, Drosophila tyramine receptor (droTyrR) (Drosophila melanogaster, UniProt P22270, C261Y); assay: Intracellular calcium ([Ca2+]i) in S2 cells stably transfected with Drosophila tyramine receptor (Fura-2 AM); type: cell-based; settings: 1 μM; Dro-TyrR-expressing S2 cells; no increase in pAC control cells (FIG. 25)
T2 construct: The open reading frame contained in this PCR product encodes a protein of 601 amino acids; expressed in transfected cells
T2 sequence (P22270 27-601 C261Y): T1 sequence (P22270 27-601 C261Y)
Description: The blend (at a final concentration of 0.5 mg/mL) was tested on a Drosophila Scheider 2 (“S2”) cell line that was stably transfected with a DNA encoding a tyramine receptor that was amplified from a Drosophila melanogaster head cDNA phage library (“droTyrR”). The intracellular calcium levels (“[Ca^2+]i”) in the treated S2 cells were then measured as a function of time. As a comparison, the a solution of carrier (canola oil, final concentration=0.12 mg/mL) and a solution of surfactant (sugar ester OWA-1570) in insect saline were tested separately.
In a separate set of experiments, the blend (at a final concentration of 0.5 mg/mL) was tested on a Drosophila Scheider 2 (“S2”) cell line that was stably transfected with droTyrR DNA, and the intracellular calcium levels (“[Ca^2+]i”) in the treated S2 cells were then measured as a function of time. […]
In yet another separate set of experiments, the blend (at a final concentration of 0.5 mg/mL) was tested on a Drosophila Scheider 2 (“S2”) cell line that was stably transfected with droTyrR DNA, and the intracellular calcium levels (“[Ca^2+]i”) in the treated S2 cells were then measured as a function of time. […]
Increased cytoplasmic concentrations of IP3 induce release of Ca2+ from the endoplasmic reticulum. […] Data are normalized by dividing each value by the background fluorescence at the beginning of the assay before adding the test sample. […]

[3] = target: T1, Drosophila TyrR; assay: 3H-tyramine saturation binding to membranes of S2 cells expressing TyrR; settings: 0.1 to 30 nM 3H-tyramine
Description: To first isolate membranes, Dro-TyrR-expressing S2 cells grown in Drosophila media are harvested in the same media by scraping from the dishes and then rinsing dishes with PBS. The cells are centrifuged at 1000 g for 3 min, washed once with PBS and centrifuged again as previously described. The cells are suspended in ice cold hypotonic buffer (10 mM Tris-Cl, pH 7.4), incubated on ice for 10 min, and lysed using a glass Bounce homogenizer and tight glass pestle (Kontes Glass Co., Vineland, N.J.) with 10 strokes. Nuclei are pelleted by centrifugation at 600 g for 5 min. The supernatant is decanted and centrifuged at 30,000 g for 30 min to pellet a crude membrane fraction. The pellet is suspended in binding buffer (50 mM Tris-Cl, 5 mM MgCl2, pH 7.4). Protein concentration is determined by the Bradford Assay (Bio-Rad Laboratories, Hercules, Calif.). Membranes are frozen on dry ice then stored at −75° C. in aliquots.
[…] The binding reaction is incubated at 23° C. in the presence and absence of 10 μM unlabeled tyramine. Reactions are terminated after 60 min by addition of 3 ml ice cold binding buffer and filtered over GF/C filters that have been soaked for 30 min in 0.3% polyethylenimine. Filters are rinsed one additional time with 3 ml binding buffer. […]

Compound NCC(O)c1ccc(O)cc1 (racemic) [Octopamine (OA), DL-octopamine] has a Ki ([1]; competitive binding with 3H-tyramine) of 28.7 µM.

With NCCc1ccc(O)cc1 [Tyramine (TA), Tyramine] the “Ca2+-bound Fura-2 AM fluorescence” value [2] was “sharp increase” and the “affinity for TyrR relative to DL-octopamine” value ([1]; ratio of Ki values) was “about 22.58 fold”.

In the case of NCCc1ccc(O)cc1 [^3H-tyramine], the Kd ([3]; 10 μM unlabeled tyramine for nonspecific binding, read-out: Kd for specific binding) is reported as 0.00256 µM and the “Bmax for specific binding” value ([3]; membranes of TyrR-expressing S2 cells) is reported as 0.679 pmol receptor/mg membrane protein.
